The record followed here is PubChem BioAssay (NCI).

Values joined by “and” are separate entries in the source; they are usually repeats but may differ in a detail not shown here. Equal entries are not always repeated.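 Briefly, cells in 96-well plates were exposed to five compound concentrations for 48 h, and endpoints were estimated by linear interpolation. The concentration for 50% growth inhibition is given as GI50. TGI: concentration producing complete growth inhibition.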

Test systems include SF-295 CNS; COLO 205 colon; HCT-116 colon; RXF 393 renal; TK-10 renal; SN12C renal; HT29 colon; OVCAR-4 ovarian; OVCAR-3 ovarian; SK-MEL-28 melanoma; ACHN renal; NCI-H23 lung; SF-268 CNS; NCI-H522 lung; LOX IMVI melanoma; SR leukemia; MCF7 breast.
Holding throughout (test): NCI tumour cell line growth inhibition, 48 h

Take `CCOC(=O)CC1=N/C(=N/C(=N)N[N+](=O)[O-])SC1`: the TGI in the assay on SF-295 CNS, in the assay on COLO 205 colon, in the assay on HCT-116 colon, with RXF 393 renal, in the assay on TK-10 renal and in the assay on SN12C renal was over 100 µM each time. The TGI with HT29 colon, in the assay with OVCAR-4 ovarian, with OVCAR-3 ovarian, in the assay with SK-MEL-28 melanoma, in the assay on ACHN renal and in the assay with NCI-H23 lung was over 100 µM each time. Besides, the TGI in the assay on SF-268 CNS, with NCI-H522 lung and in the assay on LOX IMVI melanoma was over 100 µM throughout.
For `C=C=C[P+](c1ccccc1)(c1ccccc1)c1ccccc1`, the TGI with SR leukemia is 60.8 µM; in the assay on COLO 205 colon, 10.3 µM; in the assay with HCT-116 colon, 15.5 µM; with TK-10 renal, 78.2 µM; with SN12C renal, 17.8 µM; in the assay with OVCAR-4 ovarian, over 100 µM. For the same compound, the TGI with OVCAR-3 ovarian is 34.4 µM; in the assay on SK-MEL-28 melanoma, 77.7 µM; in the assay with ACHN renal, over 100 µM; in the assay on SF-268 CNS, over 100 µM; with NCI-H522 lung, 6 µM.
In the case of `COc1ccc(N2C(=O)c3cc([N+](=O)[O-])cnc3S2(=O)=O)cc1`, the TGI in the assay on SF-295 CNS, with SR leukemia, with COLO 205 colon, with HCT-116 colon, in the assay with RXF 393 renal and with TK-10 renal was over 100 µM each time. In addition, the TGI with SN12C renal, in the assay with HT29 colon, with OVCAR-4 ovarian, with OVCAR-3 ovarian, in the assay with SK-MEL-28 melanoma and in the assay on ACHN renal was over 100 µM throughout. For the same compound, the TGI in the assay with NCI-H23 lung, in the assay with SF-268 CNS, with NCI-H522 lung and in the assay with LOX IMVI melanoma was over 100 µM each time.
For the compound `Nc1ccccc1N`, the TGI in the assay with SF-295 CNS, with SR leukemia, in the assay on COLO 205 colon, in the assay with HCT-116 colon, in the assay with RXF 393 renal and with TK-10 renal was over 100 µM each time. The TGI in the assay on SN12C renal, in the assay on HT29 colon, in the assay with OVCAR-4 ovarian, in the assay with OVCAR-3 ovarian, in the assay with SK-MEL-28 melanoma and in the assay with ACHN renal was over 100 µM each time. In addition, the TGI with NCI-H23 lung is over 100 µM; in the assay on SF-268 CNS, over 100 µM; in the assay on NCI-H522 lung, 47.5 µM; with LOX IMVI melanoma it was over 100 µM.
For the compound `O=C(c1ccc2ccccc2c1)C1(I)S(=O)(=O)OCCOS1(=O)=O`, the TGI with SF-295 CNS was 0.0298 µM; with SR leukemia, over 100 µM; in the assay on COLO 205 colon it was over 100 µM; with HCT-116 colon, over 100 µM; in the assay with TK-10 renal, over 100 µM; with SN12C renal, over 100 µM. For the same compound, the TGI in the assay on HT29 colon, with OVCAR-4 ovarian, in the assay with OVCAR-3 ovarian, with SK-MEL-28 melanoma, in the assay with ACHN renal and in the assay on NCI-H23 lung was over 100 µM each time. In the assay on MCF7 breast, this compound came in with a TGI of over 100 µM.
Consider `CCN(CC)C(=O)CCn1ccc(=O)[nH]c1=O`, for which the TGI in the assay with SF-295 CNS, in the assay on SR leukemia, in the assay with COLO 205 colon, with HCT-116 colon, in the assay on RXF 393 renal and with TK-10 renal was over 100 µM in each case. For the same compound, the TGI with SN12C renal, with HT29 colon, in the assay with OVCAR-4 ovarian, with OVCAR-3 ovarian, in the assay with SK-MEL-28 melanoma and in the assay with ACHN renal was over 100 µM each time. The TGI in the assay on NCI-H23 lung, in the assay with SF-268 CNS, with NCI-H522 lung and with LOX IMVI melanoma was over 100 µM in each case.
For the compound `O=C1C(Cl)C(c2cccc([N+](=O)[O-])c2)N1n1cnc2ccccc2c1=O` (configuration not stated), the TGI in the assay on SF-295 CNS, in the assay on SR leukemia, with COLO 205 colon, in the assay on HCT-116 colon, in the assay with RXF 393 renal and with TK-10 renal was over 100 µM throughout. The TGI in the assay on SN12C renal, in the assay with HT29 colon, in the assay with OVCAR-4 ovarian, in the assay with OVCAR-3 ovarian, with SK-MEL-28 melanoma and in the assay with ACHN renal was over 100 µM each time. In addition, the TGI in the assay on NCI-H23 lung, in the assay on SF-268 CNS, in the assay on NCI-H522 lung and in the assay with LOX IMVI melanoma was over 100 µM in each case.
Take `C/C(=N/NC(=O)c1ccccc1S(N)(=O)=O)C(CN1CCCCC1)C(C1=C(O)C2C=CC=CC2OC1=O)c1ccccc1` (configuration not stated): the TGI was over 100 µM in the assay on SF-295 CNS; 61.8 µM with SR leukemia; 41.3 µM in the assay with COLO 205 colon; over 100 µM with HCT-116 colon; 68.4 µM in the assay with RXF 393 renal; over 100 µM in the assay with TK-10 renal. Further, the TGI in the assay with SN12C renal, with HT29 colon, in the assay on OVCAR-4 ovarian, in the assay on OVCAR-3 ovarian, in the assay on ACHN renal and in the assay with NCI-H23 lung was over 100 µM each time. Besides, the TGI in the assay on SF-268 CNS, with NCI-H522 lung and in the assay with LOX IMVI melanoma was over 100 µM each time.
As to `COC(=O)c1cc2ccc(O)c(O)c2cn1`, the TGI stood at 33.6 µM with SF-295 CNS; 33.1 µM with COLO 205 colon; 29.2 µM with HCT-116 colon; 32.7 µM in the assay on RXF 393 renal; 34.6 µM with TK-10 renal; 17.3 µM in the assay with SN12C renal. In addition, the TGI was 21.7 µM in the assay with OVCAR-4 ovarian; 30.8 µM in the assay with OVCAR-3 ovarian; 35.6 µM in the assay on SK-MEL-28 melanoma; 43.6 µM in the assay with ACHN renal; 32 µM in the assay on NCI-H23 lung; 8.1 µM in the assay with MCF7 breast. For the same compound, the TGI in the assay with SF-268 CNS was 30.8 µM; in the assay with NCI-H522 lung it was 37.9 µM; in the assay on LOX IMVI melanoma, 5.43 µM and 3.31 µM. For the same compound, the GI50 in the assay on SN12C renal was 5.22 µM; in the assay on LOX IMVI melanoma it was 1.57 µM.
Consider `CC(=O)OCC1OC(N2C(=O)[C@@H](Oc3ccccc3)[C@H]2/C=C/c2ccccc2)C(OC(C)=O)C(OC(C)=O)C1OC(C)=O` (some centres not stated), for which the TGI in the assay on SF-295 CNS, in the assay with SR leukemia, in the assay on COLO 205 colon, with HCT-116 colon, in the assay with RXF 393 renal and in the assay on TK-10 renal was over 100 µM in each case. For the same compound, the TGI in the assay on SN12C renal, with HT29 colon, in the assay on OVCAR-4 ovarian, in the assay with OVCAR-3 ovarian, with SK-MEL-28 melanoma and with ACHN renal was over 100 µM each time. Further, the TGI with NCI-H23 lung, in the assay on SF-268 CNS, with NCI-H522 lung and with LOX IMVI melanoma was over 100 µM throughout.
For the compound `CC(C)OC(=O)NCCn1cc(-c2ccccc2)nn1`, the TGI in the assay with SF-295 CNS, with SR leukemia, with COLO 205 colon, with HCT-116 colon, in the assay with TK-10 renal and in the assay on SN12C renal was over 100 µM each time. Besides, the TGI in the assay on HT29 colon, in the assay on OVCAR-4 ovarian, in the assay on SK-MEL-28 melanoma, with ACHN renal, with NCI-H23 lung and in the assay on MCF7 breast was over 100 µM in each case. For the same compound, the TGI in the assay with SF-268 CNS, in the assay with NCI-H522 lung and with LOX IMVI melanoma was over 100 µM in each case.
For the compound `COc1cccc2c1C(=O)c1c(O)c3c(c(O)c1C2=O)C[C@@](O)(C(=O)CO)CC3OC1CC(N(C)CCOCC(OC(C)=O)OC(C)=O)C(O)C(C)O1` (some centres not stated), the TGI with SF-295 CNS, with RXF 393 renal, in the assay on TK-10 renal, in the assay on SN12C renal, with HT29 colon and in the assay with OVCAR-4 ovarian was over 0.01 µM throughout. The TGI in the assay with OVCAR-3 ovarian, with SK-MEL-28 melanoma, in the assay with ACHN renal, in the assay on NCI-H23 lung, in the assay with SF-268 CNS and in the assay on NCI-H522 lung was over 0.01 µM each time. In addition, in the assay with LOX IMVI melanoma, the TGI was over 0.01 µM.
For `CC1(OCc2ccccc2)C(=O)N2C1NCC2(C)C` (configuration not stated), the TGI in the assay with SF-295 CNS, in the assay with SR leukemia, in the assay with COLO 205 colon, with HCT-116 colon, in the assay with RXF 393 renal and in the assay on TK-10 renal was over 100 µM throughout. The TGI in the assay with SN12C renal, in the assay on HT29 colon, with OVCAR-4 ovarian, with OVCAR-3 ovarian, in the assay on SK-MEL-28 melanoma and with ACHN renal was over 100 µM each time. Further, the TGI with NCI-H23 lung, in the assay with SF-268 CNS and in the assay on LOX IMVI melanoma was over 100 µM throughout.
Turning to `C=C(Br)C(C)(Cl)CCC(Br)C(C)(C)Br` (configuration not stated), the TGI with SF-295 CNS is over 100 µM; in the assay with SR leukemia it was 51.9 µM; in the assay on COLO 205 colon, over 100 µM; in the assay on HCT-116 colon, over 100 µM; with RXF 393 renal it was over 100 µM; with TK-10 renal, over 100 µM. Moreover, the TGI in the assay with SN12C renal, in the assay on HT29 colon, in the assay on OVCAR-4 ovarian, in the assay on ACHN renal, with NCI-H23 lung and in the assay on NCI-H522 lung was over 100 µM throughout. In addition, in the assay with LOX IMVI melanoma, the TGI amounted to 50.5 µM.
